# Results as given in ChEMBL document CHEMBL4725235, “Small molecule DTDQ exerts anti-metastatic effects in DU145 human castration-resistant prostate cancer cells via modulations of ERK, JNK, p38 and c-Myc signaling pathways” (Bioorg Med Chem Lett, 2020).
# The source made the active and inactive calls. No cut-off for these calls is given here.
# Experiments:
# DU-145 [1] = assay: Inhibition of metastasis in human DU-145 cells assessed as reduction in MMP2 mRNA expression at 12 to 24 uM incubated for 48 hrs by qRT-PCR analysis; type: functional, cell-based; conditions: dose microM 12-24, time 48.0 hrs
# DU-145 [2] = assay: Cytotoxicity against human DU-145 cells assessed as reduction in cell viability after 24 hrs by CCK8 assay; type: functional, cell-based; conditions: DU-145, 24 h
# PC-3 [3] = assay: Modulatory activity of MAPK signaling pathway in human PC-3 cells assessed as beta-catenine expression at 12 to 24 uM incubated for 24 hrs by Western blot analysis; type: cell-based; conditions: dose microM 12-24, time 24.0 hrs
# PC-3 [4] = assay: Modulatory activity of MAPK signaling pathway in human PC-3 cells assessed as reduction in ERK phosphorylation incubated for 24 hrs by Western blot analysis; type: cell-based; conditions: filed as modulator, dose microM 12-24, time 24.0 hrs
# DU-145 [5] = assay: Modulatory activity of MAPK signaling pathway in human DU-145 cells assessed as increase in p38 activation at 12 to 24 uM incubated for 24 hrs by Western blot analysis; type: cell-based; conditions: filed as modulator, dose microM 12-24, time 24.0 hrs
# PC-3 [6] = assay: Modulatory activity of MAPK signaling pathway in human PC-3 cells assessed as increase in JNK phosphorylation at 12 to 24 uM incubated for 24 hrs by Western blot analysis; type: cell-based; conditions: filed as modulator, dose microM 12-24, time 24.0 hrs
# DU-145 [7] = assay: Modulatory activity of MAPK signaling pathway in human DU-145 cells assessed as reduction in ERK phosphorylation incubated for 24 hrs by Western blot analysis; type: cell-based; conditions: filed as modulator, dose microM 12-24, time 24.0 hrs
# PC-3 [8] = assay: Inhibition of colony formation in human PC-3 cells incubated for 2 weeks with media replacement for every 3 days by crystal violet staining based microscopic analysis; type: functional, cell-based; conditions: dose microM 12-24, time 2.0 weeks
# DU-145 [9] = assay: Inhibition of colony formation in human DU-145 cells at 12 to 24 uM incubated for 2 weeks with media replacement for every 3 days by crystal violet staining based microscopic analysis; type: functional, cell-based; conditions: dose microM 12-24, time 2.0 weeks
# DU-145 [10] = assay: Modulatory activity of MAPK signaling pathway in human DU-145 cells assessed as NFkappaB expression at 12 to 24 uM incubated for 24 hrs by Western blot analysis; type: cell-based; conditions: dose microM 12-24, time 24.0 hrs
# DU-145 [11] = assay: Modulatory activity of MAPK signaling pathway in human DU-145 cells assessed as beta-catenine expression at 12 to 24 uM incubated for 24 hrs by Western blot analysis; type: cell-based; conditions: dose microM 12-24, time 24.0 hrs
# PC-3 [12] = assay: Modulatory activity of MAPK signaling pathway in human PC-3 cells assessed as EST-1 expression at 12 to 24 uM incubated for 24 hrs by Western blot analysis; type: cell-based; conditions: dose microM 12-24, time 24.0 hrs
# DU-145 [13] = assay: Inhibition of metastasis in human DU-145 cells assessed as reduction in MMP9 mRNA expression at 12 to 24 uM incubated for 48 hrs by qRT-PCR analysis; type: functional, cell-based; conditions: dose microM 12-24, time 48.0 hrs
# PC-3 [14] = assay: Inhibition of metastasis in human PC-3 cells assessed as reduction in MMP2 expression at 12 to 24 uM incubated for 48 hrs by Western blot analysis; type: functional, cell-based; conditions: dose microM 12-24, time 48.0 hrs
# DU-145 [15] = assay: Modulatory activity of MAPK signaling pathway in human DU-145 cells assessed as increase in JNK activation at 12 to 24 uM incubated for 24 hrs by Western blot analysis; type: cell-based; conditions: filed as modulator, dose microM 12-24, time 24.0 hrs
# PC-3 [16] = assay: Modulatory activity of MAPK signaling pathway in human PC-3 cells assessed as reduction in c-MYC expression at 12 to 24 uM incubated for 24 hrs by Western blot analysis; type: cell-based; conditions: filed as modulator, dose microM 12-24, time 24.0 hrs
# DU-145 [17] = assay: Inhibition of metastasis in human DU-145 cells assessed as reduction in MMP9 expression incubated for 48 hrs by Western blot analysis; type: functional, cell-based; conditions: dose microM 12-24, time 48.0 hrs
# DU-145 [18] = assay: Modulatory activity of MAPK signaling pathway in human DU-145 cells assessed as EST-1 expression at 12 to 24 uM incubated for 24 hrs by Western blot analysis; type: cell-based; conditions: dose microM 12-24, time 24.0 hrs
# PC-3 [19] = assay: Inhibition of cell migration in human PC-3 cells at 12 to 24 uM incubated for 24 hrs by wound healing assay; type: functional, cell-based; conditions: dose microM 12-24, time 24.0 hrs
# DU-145 [20] = assay: Antiinvasive activity against human DU-145 cells assessed as inhibition of cell migration at 12 to 24 uM incubated for 20 hrs by Boyden chamber assay; type: functional, cell-based; conditions: dose microM 12-24, time 20.0 hrs
# DU-145 [21] = assay: Cytotoxicity against human DU-145 cells assessed as reduction in cell viability at 10 uM incubated for 24 hrs by CCK8 assay relative to control; type: functional
# PC-3 [22] = assay: Inhibition of metastasis in human PC-3 cells assessed as reduction in MMP9 expression at 12 to 24 uM incubated for 48 hrs by Western blot analysis; type: functional, cell-based; conditions: dose microM 12-24, time 48.0 hrs
# PC-3 [23] = assay: Cytotoxicity against human PC-3 cells assessed as reduction in cell viability at 40 uM incubated for 24 hrs by CCK8 assay relative to control; type: functional
# DU-145 [24] = assay: Modulatory activity of MAPK signaling pathway in human DU-145 cells assessed as reduction in c-MYC expression at 12 to 24 uM incubated for 24 hrs by Western blot analysis; type: cell-based; conditions: filed as modulator, dose microM 12-24, time 24.0 hrs
# PC-3 [25] = assay: Modulatory activity of MAPK signaling pathway in human PC-3 cells assessed as NFkappaB expression at 12 to 24 uM incubated for 24 hrs by Western blot analysis; type: cell-based; conditions: dose microM 12-24, time 24.0 hrs
# DU-145 [26] = assay: Inhibition of metastasis in human DU-145 cells assessed as reduction in MMP2 expression incubated for 48 hrs by Western blot analysis; type: functional, cell-based; conditions: dose microM 12-24, time 48.0 hrs
# DU-145 [27] = assay: Inhibition of cell migration in human DU-145 cells at 12 to 24 uM incubated for 24 hrs by wound healing assay; type: functional, cell-based; conditions: dose microM 12-24, time 24.0 hrs
# PC-3 [28] = assay: Modulatory activity of MAPK signaling pathway in human PC-3 cells assessed as increase in p38 phosphorylation at 12 to 24 uM incubated for 24 hrs by Western blot analysis; type: cell-based; conditions: dose microM 12-24, time 24.0 hrs
compound,measurement,setting,value
COc1cc(C2CC(=O)Nc3cc(C)c(C)cc32)cc(OC)c1OC (stereo not drawn),inhibition,DU-145 [1],Active
same,IC50,DU-145 [2],> 200 µM
same,Activity,PC-3 [3],inactive
same,Activity,PC-3 [4],Active
same,Activity,DU-145 [5],Active
same,Activity,PC-3 [6],Active
same,Activity,DU-145 [7],Dose-dependent effect
same,inhibition,PC-3 [8],Dose-dependent effect
same,inhibition,DU-145 [9],Active
same,Activity,DU-145 [10],inactive
same,Activity,DU-145 [11],inactive
same,Activity,PC-3 [12],inactive
same,inhibition,DU-145 [13],Active
same,inhibition,PC-3 [14],Active
same,Activity,DU-145 [15],Active
same,Activity,PC-3 [16],Active
same,inhibition,DU-145 [17],Dose-dependent effect
same,Activity,DU-145 [18],inactive
same,inhibition,PC-3 [19],Active
same,inhibition,DU-145 [20],Active
same,Activity,DU-145 [21],70%
same,inhibition,PC-3 [22],inactive
same,Activity,PC-3 [23],20%
same,Activity,DU-145 [24],Active
same,Activity,PC-3 [25],inactive
same,inhibition,DU-145 [26],Dose-dependent effect
same,inhibition,DU-145 [27],Active
same,Activity,PC-3 [28],inactive
